Measured values reported in US7829560B2, “1,4-disubstituted naphthalenes as inhibitors of P38 MAP kinase” (Arqule, Inc., priority 2004, dated 2010).

What was measured:
[1] = biological target: T1, p38α (Homo sapiens, UniProt Q16539); assay: p38 MAP Kinase assay: inhibition of ATF2 phosphorylation, ELISA; assay type: biochemical; conditions: for IC50: ATF2 phosphorylation, read-out: [ENZ] P38 ALPHA, IC50, ELISA
T1 construct: p38 MAP Kinases are recombinant human full-length proteins with an amino-terminal GST fusion; GST (N); purchased Upstate Biotechnology Inc; host or cells: E. coli
T1 sequence (Q16539 whole entry, the tested form may be a part): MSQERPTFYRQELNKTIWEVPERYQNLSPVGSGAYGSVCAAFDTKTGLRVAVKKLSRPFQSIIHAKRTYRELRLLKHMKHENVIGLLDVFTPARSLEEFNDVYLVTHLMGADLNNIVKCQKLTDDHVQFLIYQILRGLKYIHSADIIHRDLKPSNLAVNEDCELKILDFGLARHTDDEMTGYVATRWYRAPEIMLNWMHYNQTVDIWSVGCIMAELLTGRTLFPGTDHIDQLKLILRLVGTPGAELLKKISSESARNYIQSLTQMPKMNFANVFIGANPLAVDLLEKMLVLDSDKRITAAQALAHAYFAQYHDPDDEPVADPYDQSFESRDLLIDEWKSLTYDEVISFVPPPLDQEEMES
In short: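 GST-tagged full-length human p38 MAP kinase with GST-ATF2 (aa 19–96; 1.25 μM) and 40 μM ATP in HEPES pH 7.5 buffer, without (Method I) or with (Method II) 1% human serum albumin. Compound pre-incubated 15 min at room temperature; reaction 30 min at 37 °C; ATF2 Thr69 phosphorylation measured by ELISA (A450).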

[2] = system: TNFα release from THP-1 cells; assay: Inhibition of TNFα release from LPS-stimulated THP-1 cells, ELISA; assay type: cell-based; conditions: Homo sapiens, THP-1, THP-1 cells, read-out: [CELL] THP-1, IC50, TNF ALPHA, ELISA
In short: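 Human THP-1 monocytes, 10^6 cells/ml in RPMI with 10% FBS, no serum or 1% HSA, preincubated 30 min at 37 °C with compound (≤0.5% DMSO), then stimulated with 10 μg/ml LPS for 18 h. Supernatant TNFα measured by ELISA; IC50 from non-linear dose-response regression.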

SMILES | IC50 [1] | IC50 [2] | melting point | inhibition at 10 µM ([1]; 10 uM, substrate ATF2, read-out: [ENZ] P38 ALPHA, PCT INH, ELISA (10 uM;ATF2) (Percent))
CC(C)(C)OC(=O)N1CCN(c2nccc(Oc3ccc(NC(=O)c4cc(F)cc(N5CCCCC5)c4)c4ccccc34)n2)CC1 [Compound B397, tert-Butyl-4-[4-({4-[(3-fluoro-5-piperidin-1-ylbenzoyl)amino]-1-naphthyl}oxy)pyrimidin-2-yl]piperazine-1-carboxylate] | 109 nM | > 1000 nM | 175 to 177 °C | 
CCn1c(COc2ccc(NC(=O)c3cc(F)cc(N4CCC(C)CC4)c3)c3ccccc23)n[nH]c1=O [Compound B220, N-[4-(4-Ethyl-5-oxo-4,5-dihydro-1H-[1,2,4]triazol-3-ylmethoxy)-naphthalen-1-yl]-3-fluoro-5-(4-methyl-piperidin-1-yl)-benzamide] | 145 nM | 2870 nM | 240 to 241 °C | 
O=C(Nc1ccc(Oc2ccnc(NCc3ccccc3)n2)c2ccccc12)c1cc(F)cc(N2CCOCC2)c1 [Compound B249, N-(4-{[2-(Benzylamino)pyrimidin-4-yl]oxy}-1-naphthyl)-3-fluoro-5-morpholin-4-ylbenzamide] | 13.9 nM | 12.4 nM | 121 to 123 °C | 
CC(=O)N1CCN(CCCOc2ccc(NC(=O)c3cc(F)cc(N4CCCCC4)c3)c3ccccc23)CC1 [Compound B165, N-{4-[3-(4-Acetyl-piperazin-1-yl)-propoxy]-naphthalen-1-yl}-3-fluoro-5-piperidin-1-yl-benzamide] | 997 nM | > 10000 nM | 210 to 211 °C | 84%
O=C1CN(c2nccc(Oc3ccc(NC(=O)c4cc(F)cc(N5CCCCC5)c4)c4ccccc34)n2)CCN1 [Compound B421, 3-Fluoro-N-(4-{[2-(3-oxopiperazin-1-yl)pyrimidin-4-yl]oxy}-1-naphthyl)-5-piperidin-1-ylbenzamide] | 17.8 nM | 689 nM | 140 to 142 °C | 
COc1ccc(CCOc2ccc(NC(=O)c3cc(F)cc(N4CCCCC4)c3)c3ccccc23)cc1OC [Compound B179, N-{4-[2-(3,4-Dimethoxyphenyl)ethoxy]-1-naphthyl}-3-fluoro-5-piperidin-1-ylbenzamide] | 1060 nM | 2050 nM | 158 to 160 °C | 
O=C(Nc1ccc(Oc2ccnc(NCC3OCCO3)n2)c2ccccc12)c1cc(F)cc(N2CCCCC2)c1 [Compound B411, N-[4-({2-[(1,3-Dioxolan-2-ylmethyl)amino]pyrimidin-4-yl}oxy)-1-naphthyl]-3-fluoro-5-piperidin-1-ylbenzamide] | 1.7 nM | 23.5 nM | 96 to 98 °C | 
Cc1ncsc1CCOc1ccc(NC(=O)c2cc(F)cc(N3CCCCC3)c2)c2ccccc12 [Compound B424, 3-Fluoro-N-{4-[2-(4-methyl-1,3-thiazol-5-yl)ethoxy]-1-naphthyl}-5-piperidin-1-ylbenzamide] | 39.9 nM | 2210 nM | 221 to 222 °C | 
O=C(Nc1ccc(OCCCN2CCCC2=O)c2ccccc12)c1cc(F)cc(N2CCCCC2)c1 [Compound B182, 3-Fluoro-N-{4-[3-(2-oxopyrrolidin-1-yl)propoxy]-1-naphthyl}-5-piperidin-1-ylbenzamide] | 587 nM | > 10000 nM | 88 to 89 °C | 

Continued, values first:

IC50 [1] | IC50 [2] | melting point | inhibition at 10 µM ([1]; 10 uM, substrate ATF2, read-out: [ENZ] P38 ALPHA, PCT INH, ELISA (10 uM;ATF2) (Percent)) | SMILES
27.3 nM | 412 nM | 118 to 120 °C |  | C[C@@H]1CN(c2nccc(Oc3ccc(NC(=O)c4cc(F)cc(N5CCOCC5)c4)c4ccccc34)n2)C[C@H](C)O1 [Compound B364, N-[4-({2-[(2R,6S)-2,6-Dimethylmorpholin-4-yl]pyrimidin-4-yl}oxy)-1-naphthyl]-3-fluoro-5-morpholin-4-ylbenzamide]
39.1 nM | 347 nM | 137 to 139 °C |  | O=C(Nc1ccc(Oc2ccnc(N3CCC(O)C3)n2)c2ccccc12)c1cc(F)cc(N2CCOCC2)c1 (stereo not shown) [Compound B339, 3-Fluoro-N-(4-{[2-(3-hydroxypyrrolidin-1-yl)pyrimidin-4-yl]oxy}-1-naphthyl)-5-morpholin-4-ylbenzamide]
30.4 nM | 202 nM | 93 to 94 °C |  | CN(C)[C@@H]1CCN(c2nccc(Oc3ccc(NC(=O)c4cc(F)cc(N5CCCCC5)c4)c4ccccc34)n2)C1 [Compound B405, N-[4-({2-[(3R)-3-(Dimethylamino)pyrrolidin-1-yl]pyrimidin-4-yl}oxy)-1-naphthyl]-3-fluoro-5-piperidin-1-ylbenzamide]
18.2 nM | 649 nM | 155 to 157 °C |  | CN(C(=N)N)c1nccc(Oc2ccc(NC(=O)c3cc(F)cc(N4CCOCC4)c3)c3ccccc23)n1 [Compound B367, N-[4-({2-[[amino(imino)methyl](methyl)amino]pyrimidin-4-yl}oxy)-1-naphthyl]-3-fluoro-5-morpholin-4-ylbenzamide]
15.2 nM | 136 nM | 98 to 100 °C |  | O=C(Nc1ccc(Oc2ccnc(NCCN3CCCCC3)n2)c2ccccc12)c1cc(F)cc(N2CCOCC2)c1 [Compound B343, 3-Fluoro-5-morpholin-4-yl-N-[4-({2-[(2-piperidin-1-ylethyl)amino]pyrimidin-4-yl}oxy)-1-naphthyl]benzamide]
5 nM | 252 nM | 106 to 108 °C |  | O=C(Nc1ccc(Oc2ccnc(N3CCC(O)CC3)n2)c2ccccc12)c1cc(F)cc(N2CCOCC2)c1 [Compound B332, 3-Fluoro-N-(4-{[2-(4-hydroxypiperidin-1-yl)pyrimidin-4-yl]oxy}-1-naphthyl)-5-morpholin-4-ylbenzamide]
3.7 nM | 237 nM | 110 to 112 °C |  | O=C(Nc1ccc(Oc2ccnc(NC3CCC3)n2)c2ccccc12)c1cc(F)cc(N2CCOCC2)c1 [Compound B331, N-(4-{[2-(Cyclobutylamino)pyrimidin-4-yl]oxy}-1-naphthyl)-3-fluoro-5-morpholin-4-ylbenzamide]
7.2 nM | 38.3 nM | 96 to 97 °C |  | CC(C)CNc1nccc(Oc2ccc(NC(=O)c3cc(F)cc(N4CCOCC4)c3)c3ccccc23)n1 [Compound B318, 3-Fluoro-N-(4-{[2-(isobutylamino)pyrimidin-4-yl]oxy}-1-naphthyl)-5-morpholin-4-ylbenzamide]
28.3 nM | 386 nM | 214 to 216 °C |  | CC(C)(C)OC(=O)NC1CCN(c2nccc(Oc3ccc(NC(=O)c4cc(F)cc(N5CCOCC5)c4)c4ccccc34)n2)CC1 [Compound B366, t-Butyl-{1-[4-({4-[(3-fluoro-5-morpholin-4-ylbenzoyl)amino]-1-naphthyl}oxy)pyrimidin-2-yl]piperidin-4-yl}-carbamate]
28 nM | 56.7 nM | 106 to 108 °C |  | CN(C)C1CCN(c2nccc(Oc3ccc(NC(=O)c4cc(F)cc(N5CCOCC5)c4)c4ccccc34)n2)C1 (stereo not shown) [Compound B365, N-[4-({2-[3-(Dimethylamino)pyrrolidin-1-yl]pyrimidin-4-yl}oxy)-1-naphthyl]-3-fluoro-5-morpholin-4-ylbenzamide]
13.3 nM | 79.6 nM | 185 to 186 °C |  | CCN1CCN(c2nccc(Oc3ccc(NC(=O)c4cc(F)cc(N5CCOCC5)c4)c4ccccc34)n2)CC1 [Compound B345, N-(4-{[2-(4-Ethylpiperazin-1-yl)pyrimidin-4-yl]oxy}-1-naphthyl)-3-fluoro-5-morpholin-4-ylbenzamide]
